Data taken from patent publication US11813285B2, “Stable pharmaceutical composition comprising esomeprazole and sodium bicarbonate” (CHONG KUN DANG PHARMACEUTICAL CORP., priority 2018, dated 2023).
Like-named read-outs stand apart in the source and are kept apart here.

Assays:
[1] = Stability test of esomeprazole and omeprazole according to pH; format: physicochemical; conditions: in % (unit assumed)
Method: <Analysis method> A) Detector: UV-Visible spectrophotometer (measurement wavelength:280 nm) B) Column: Inertsil C8-3 (4.6×150 mm, 5 μm) or equivalent column C) Injection amount: 20 μl D) Flow rate: 1.5 mL/min E) Column temperature: Constant temperature near 40° C. F) Sample temperature: Constant temperature near 10° C. […] H) Mobile phase: […] The buffer solution at pH 7.6 was prepared as follows: 0.725 g of sodium dihydrogen phosphate monohydrate (NaH2PO4.H2O) and 4.472 g of anhydrous disodium hydrogen phosphate (Na2HPO4) were weighed to be put in an 1 L volumetric flask and dissolved in purified water, followed by filling the flask with purified water up to the calibration mark. 250 mL of the liquid was taken to be put in an 1 L volumetric flask, followed by filling the flask with purified water up to the calibration mark and adjusting the pH to 7.6 with phosphoric acid.

[2] = for pH of simulated gastric juice: 200 mL simulated gastric juice + 200 mL purified water, 37° C.
Method: A pH was measured according to the change of the dose of sodium bicarbonate in a solution (37° C.) where 200 mL of purified water was put in 200 mL of simulated gastric juice.

COc1ccc2[nH]c([S+]([O-])Cc3ncc(C)c(OC)c3C)nc2c1 (centres unmarked) [Omeprazole, 5-methoxy-2-[(4-methoxy-3,5-dimethyl-2-pyridinyl)methyl]sulfinyl-1H-benzimidazol]
assay of esomeprazole and omeprazole according to pH ([1]; buffer pH 4.0, 5 min): 57.2 | assay of esomeprazole and omeprazole according to pH ([1]; buffer pH 4.0, 10 min): 29.4 | assay of esomeprazole and omeprazole according to pH ([1]; buffer pH 4.0, 15 min): 15.3 | assay of esomeprazole and omeprazole according to pH ([1]; buffer pH 4.0, 30 min): 6.7 | assay of esomeprazole and omeprazole according to pH ([1]; buffer pH 4.0, 45 min): 1.6 | assay of esomeprazole and omeprazole according to pH ([1]; buffer pH 4.0, 60 min): 0.8 | assay of esomeprazole and omeprazole according to pH ([1]; buffer pH 4.0, 120 min): 0.1 | assay of esomeprazole and omeprazole according to pH ([1]; buffer pH 6.0, 5 min): 74.9 | assay of esomeprazole and omeprazole according to pH ([1]; buffer pH 6.0, 10 min): 74.2 | assay of esomeprazole and omeprazole according to pH ([1]; buffer pH 6.0, 15 min): 71.7 | assay of esomeprazole and omeprazole according to pH ([1]; buffer pH 6.0, 30 min): 69.6 | assay of esomeprazole and omeprazole according to pH ([1]; buffer pH 6.0, 45 min): 65.4 | assay of esomeprazole and omeprazole according to pH ([1]; buffer pH 6.0, 60 min): 64.1 | assay of esomeprazole and omeprazole according to pH ([1]; buffer pH 6.0, 120 min): 55.1 | assay of esomeprazole and omeprazole according to pH ([1]; buffer pH 6.8, 5 min): 91.5 | assay of esomeprazole and omeprazole according to pH ([1]; buffer pH 6.8, 10 min): 90.5 | assay of esomeprazole and omeprazole according to pH ([1]; buffer pH 6.8, 15 min): 89.9 | assay of esomeprazole and omeprazole according to pH ([1]; buffer pH 6.8, 30 min): 89.8 | assay of esomeprazole and omeprazole according to pH ([1]; buffer pH 6.8, 45 min): 88.8 | assay of esomeprazole and omeprazole according to pH ([1]; buffer pH 6.8, 60 min): 88.3 | assay of esomeprazole and omeprazole according to pH ([1]; buffer pH 6.8, 120 min): 85.5 | assay of esomeprazole and omeprazole according to pH ([1]; buffer pH 7.0, 5 min): 100.5 | assay of esomeprazole and omeprazole according to pH ([1]; buffer pH 7.0, 10 min): 99.0 | assay of esomeprazole and omeprazole according to pH ([1]; buffer pH 7.0, 15 min): 98.9 | assay of esomeprazole and omeprazole according to pH ([1]; buffer pH 7.0, 30 min): 98.2 | assay of esomeprazole and omeprazole according to pH ([1]; buffer pH 7.0, 45 min): 97.9 | assay of esomeprazole and omeprazole according to pH ([1]; buffer pH 7.0, 60 min): 97.5 | assay of esomeprazole and omeprazole according to pH ([1]; buffer pH 7.0, 120 min): 95.8 | assay of esomeprazole and omeprazole according to pH ([1]; buffer pH 7.3, 5 min): 99.8 | assay of esomeprazole and omeprazole according to pH ([1]; buffer pH 7.3, 10 min): 100.0 | assay of esomeprazole and omeprazole according to pH ([1]; buffer pH 7.3, 15 min): 99.9 | assay of esomeprazole and omeprazole according to pH ([1]; buffer pH 7.3, 30 min): 99.8 | assay of esomeprazole and omeprazole according to pH ([1]; buffer pH 7.3, 45 min): 99.8 | assay of esomeprazole and omeprazole according to pH ([1]; buffer pH 7.3, 60 min): 99.8 | assay of esomeprazole and omeprazole according to pH ([1]; buffer pH 7.3, 120 min): 99.86 | assay of esomeprazole and omeprazole according to pH ([1]; buffer pH 7.5, 5 min): 100.5 | assay of esomeprazole and omeprazole according to pH ([1]; buffer pH 7.5, 10 min): 99.7 | assay of esomeprazole and omeprazole according to pH ([1]; buffer pH 7.5, 15 min): 99.7 | assay of esomeprazole and omeprazole according to pH ([1]; buffer pH 7.5, 30 min): 99.4 | assay of esomeprazole and omeprazole according to pH ([1]; buffer pH 7.5, 45 min): 99.2 | assay of esomeprazole and omeprazole according to pH ([1]; buffer pH 7.5, 60 min): 98.9 | assay of esomeprazole and omeprazole according to pH ([1]; buffer pH 7.5, 120 min): 98.2 | assay of esomeprazole and omeprazole according to pH ([1]; buffer pH 8.0, 15 min): 99.7 | assay of esomeprazole and omeprazole according to pH ([1]; buffer pH 8.0, 30 min): 99.6 | assay of esomeprazole and omeprazole according to pH ([1]; buffer pH 8.0, 45 min): 99.5 | assay of esomeprazole and omeprazole according to pH ([1]; buffer pH 8.0, 60 min): 99.5 | assay of esomeprazole and omeprazole according to pH ([1]; buffer pH 8.0, 120 min): 98.6

COc1ccc2[nH]c([S@@+]([O-])Cc3ncc(C)c(OC)c3C)nc2c1 [S-omeprazole, (S)-5-methoxy-2-[(4-methoxy-3,5-dimethyl-2-pyridinyl)-methyl]sulfinyl-1H-benzimidazol]
assay of esomeprazole and omeprazole according to pH ([1]; buffer pH 4.0, 5 min): 64.1 | assay of esomeprazole and omeprazole according to pH ([1]; buffer pH 4.0, 10 min): 31.0 | assay of esomeprazole and omeprazole according to pH ([1]; buffer pH 4.0, 15 min): 15.9 | assay of esomeprazole and omeprazole according to pH ([1]; buffer pH 4.0, 30 min): 6.9 | assay of esomeprazole and omeprazole according to pH ([1]; buffer pH 4.0, 45 min): 1.7 | assay of esomeprazole and omeprazole according to pH ([1]; buffer pH 4.0, 60 min): 0.9 | assay of esomeprazole and omeprazole according to pH ([1]; buffer pH 4.0, 120 min): 0.1 | assay of esomeprazole and omeprazole according to pH ([1]; buffer pH 6.0, 5 min): 74.4 | assay of esomeprazole and omeprazole according to pH ([1]; buffer pH 6.0, 10 min): 72.8 | assay of esomeprazole and omeprazole according to pH ([1]; buffer pH 6.0, 15 min): 71.0 | assay of esomeprazole and omeprazole according to pH ([1]; buffer pH 6.0, 30 min): 68.9 | assay of esomeprazole and omeprazole according to pH ([1]; buffer pH 6.0, 45 min): 66.3 | assay of esomeprazole and omeprazole according to pH ([1]; buffer pH 6.0, 60 min): 63.6 | assay of esomeprazole and omeprazole according to pH ([1]; buffer pH 6.0, 120 min): 54.9 | assay of esomeprazole and omeprazole according to pH ([1]; buffer pH 6.8, 5 min): 95.6 | assay of esomeprazole and omeprazole according to pH ([1]; buffer pH 6.8, 10 min): 90.8 | assay of esomeprazole and omeprazole according to pH ([1]; buffer pH 6.8, 15 min): 90.5 | assay of esomeprazole and omeprazole according to pH ([1]; buffer pH 6.8, 30 min): 89.7 | assay of esomeprazole and omeprazole according to pH ([1]; buffer pH 6.8, 45 min): 88.9 | assay of esomeprazole and omeprazole according to pH ([1]; buffer pH 6.8, 60 min): 88.3 | assay of esomeprazole and omeprazole according to pH ([1]; buffer pH 6.8, 120 min): 86.2 | assay of esomeprazole and omeprazole according to pH ([1]; buffer pH 7.0, 5 min): 99.6 | assay of esomeprazole and omeprazole according to pH ([1]; buffer pH 7.0, 10 min): 99.0 | assay of esomeprazole and omeprazole according to pH ([1]; buffer pH 7.0, 15 min): 99.3 | assay of esomeprazole and omeprazole according to pH ([1]; buffer pH 7.0, 30 min): 98.9 | assay of esomeprazole and omeprazole according to pH ([1]; buffer pH 7.0, 45 min): 98.7 | assay of esomeprazole and omeprazole according to pH ([1]; buffer pH 7.0, 60 min): 98.1 | assay of esomeprazole and omeprazole according to pH ([1]; buffer pH 7.0, 120 min): 96.8 | assay of esomeprazole and omeprazole according to pH ([1]; buffer pH 7.3, 5 min): 100.1 | assay of esomeprazole and omeprazole according to pH ([1]; buffer pH 7.3, 10 min): 100.1 | assay of esomeprazole and omeprazole according to pH ([1]; buffer pH 7.3, 15 min): 100.0 | assay of esomeprazole and omeprazole according to pH ([1]; buffer pH 7.3, 30 min): 100.0 | assay of esomeprazole and omeprazole according to pH ([1]; buffer pH 7.3, 45 min): 100.0 | assay of esomeprazole and omeprazole according to pH ([1]; buffer pH 7.3, 60 min): 100.0 | assay of esomeprazole and omeprazole according to pH ([1]; buffer pH 7.3, 120 min): 99.90 | assay of esomeprazole and omeprazole according to pH ([1]; buffer pH 7.5, 5 min): 99.4 | assay of esomeprazole and omeprazole according to pH ([1]; buffer pH 7.5, 10 min): 99.3 | assay of esomeprazole and omeprazole according to pH ([1]; buffer pH 7.5, 15 min): 99.2 | assay of esomeprazole and omeprazole according to pH ([1]; buffer pH 7.5, 30 min): 99.1 | assay of esomeprazole and omeprazole according to pH ([1]; buffer pH 7.5, 45 min): 99.3 | assay of esomeprazole and omeprazole according to pH ([1]; buffer pH 7.5, 60 min): 99.1 | assay of esomeprazole and omeprazole according to pH ([1]; buffer pH 7.5, 120 min): 98.2 | assay of esomeprazole and omeprazole according to pH ([1]; buffer pH 8.0, 15 min): 101.1 | assay of esomeprazole and omeprazole according to pH ([1]; buffer pH 8.0, 30 min): 100.9 | assay of esomeprazole and omeprazole according to pH ([1]; buffer pH 8.0, 45 min): 100.7 | assay of esomeprazole and omeprazole according to pH ([1]; buffer pH 8.0, 60 min): 100.7 | assay of esomeprazole and omeprazole according to pH ([1]; buffer pH 8.0, 120 min): 100.0

O=C([O-])O.[Na+] [sodium bi-carbonate, sodium bicarbonate]
dose of sodium bicarbonate that can neutralize 200 mL of simulated gastric juice to show neutral pH ([2]; 200 mL simulated gastric juice): at least 600 mg | pH of simulated gastric juice ([2]; sodium bicarbonate 500 mg): 5.77 | pH of simulated gastric juice ([2]; sodium bicarbonate 600 mg): 6.51 | pH of simulated gastric juice ([2]; sodium bicarbonate 700 mg): 7.30 | pH of simulated gastric juice ([2]; sodium bicarbonate 800 mg): 7.30 | pH of simulated gastric juice ([2]; sodium bicarbonate 900 mg): 7.31 | pH of simulated gastric juice ([2]; sodium bicarbonate 1,000 mg): 7.37 | pH of simulated gastric juice ([2]; sodium bicarbonate 1,100 mg): 7.38 | pH of simulated gastric juice ([2]; sodium bicarbonate 1,200 mg): 7.38 | pH of simulated gastric juice ([2]; sodium bicarbonate 1,300 mg): 7.40
